This note sets out measurements from ChEMBL document CHEMBL4609988, “Heterocycle amide isosteres: An approach to overcoming resistance for HIV-1 integrase strand transfer inhibitors” (Bioorg Med Chem Lett, 2020).

Data set [1] relates to Human immunodeficiency virus 1. The experiment in a line: Antiviral activity against HIV1 NL4-3 harboring N155H mutant by cellular assay. Type of data set: functional, organism-based. The note with it: Human immunodeficiency virus 1, NL4-3.
The subject of data set [2] is Human immunodeficiency virus 1. Put plainly: Antiviral activity against HIV1 NL4-3 by cellular assay. In kind it is functional, organism-based. The note with it: Human immunodeficiency virus 1, NL4-3.
In data set [3] the test system is Human immunodeficiency virus 1. Put plainly: Antiviral activity against HIV1 NL4-3 harboring Q148R mutant by cellular assay. Type of data set: functional, organism-based. The note with it: Human immunodeficiency virus 1, NL4-3.
For data set [4], the system named is Human immunodeficiency virus 1. The experiment in a line: Ratio of EC50 for antiviral activity against HIV1 NL4-3 harboring N155H mutant to EC50 for antiviral activity against HIV1 NL4-3. Type of data set: functional.
Data set [5] deals with Human immunodeficiency virus 1. Put plainly: Ratio of EC50 for antiviral activity against HIV1 NL4-3 harboring Q148R mutant to EC50 for antiviral activity against HIV1 NL4-3. In kind it is functional.
Data set [6] has as its system Human immunodeficiency virus 1. The experiment in a line: Ratio of EC50 for antiviral activity against HIV1 NL4-3 harboring G140S/Q148H mutant to EC50 for antiviral activity against HIV1 NL4-3. In kind it is functional.
The test system of data set [7] is Human immunodeficiency virus 1. Put plainly: Antiviral activity against HIV1 NL4-3 harboring […]/Q148H mutant by cellular assay. The note with it: Human immunodeficiency virus 1, NL4-3. In kind it is functional, organism-based.
The nature of data set [8]: Clearance in rat at 1 mg/kg, iv. The note with it: in vivo. Type of data set: ADME, organism-based.
The nature of data set [9]: Volume of distribution at steady state in rat at 1 mg/kg, iv. In kind it is ADME, organism-based. The note with it: in vivo, read-out: Vdss.
A short description of data set [10]: AUC in rat at 1 mg/kg, iv. In kind it is ADME, organism-based. The note with it: in vivo.
The target of data set [11] is Human immunodeficiency virus type 1 integrase (Human immunodeficiency virus 1, UniProt Q7ZJM1). The experiment in a line: Inhibition of HIV-1 integrase strand transfer activity.
Human immunodeficiency virus type 1 integrase, sequence (Q7ZJM1 whole entry): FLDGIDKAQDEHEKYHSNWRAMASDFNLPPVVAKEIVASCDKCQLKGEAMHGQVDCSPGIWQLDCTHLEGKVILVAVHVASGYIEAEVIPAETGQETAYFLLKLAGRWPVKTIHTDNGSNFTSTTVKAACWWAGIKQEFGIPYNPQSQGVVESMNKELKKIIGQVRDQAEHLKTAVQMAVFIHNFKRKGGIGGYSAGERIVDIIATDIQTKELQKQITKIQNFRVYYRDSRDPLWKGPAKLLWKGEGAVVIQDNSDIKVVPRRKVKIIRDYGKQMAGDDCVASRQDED

As for `CC1(C)OCCn2c1nc(C(=O)NCc1ccc(F)cc1)c(O)c2=O`, the EC50 in [1] is 0.14 µM; in data set [2], 0.003 µM; in data set [3], 0.3 µM; in [7], more than 8 µM. The entries for the “Ratio EC50” value in data set [4], in data set [5] and in data set [6] were 47, 99 and more than 2666, respectively.
For the molecule `Cn1c(Cc2ccc(F)cc2)cnc1-c1nc2n(c(=O)c1O)CCOC2(C)C`, the EC50 in data set [1] was determined as 0.036 µM; in data set [2], 0.01 µM; in data set [3] it was 0.061 µM; in [7], 0.53 µM. For the same molecule, in data set [8], the clearance was 11 mL/min/kg. Besides, in data set [9], the Vd amounted to 0.5 L/kg. This molecule also showed an AUC in [10] of 3.92 µM·h.
With `CC1(C)OCCn2c1nc(-c1nc(Cl)c(Cc3ccc(F)cc3)[nH]1)c(O)c2=O`, the EC50 in data set [11] is more than 64 µM.
As to `CC1(C)OCCn2c1nc(-c1ncn(Cc3ccc(F)cc3)n1)c(O)c2=O`, the half-maximal effective concentration (EC50) in data set [1] was 0.016 µM; in data set [2] it was 0.007 µM; in data set [3], 0.22 µM; in [7] it was 3.7 µM. The molecule also returned a clearance in [8] of 52 mL/min/kg. In addition, the Vd in data set [9] stood at 1.5 L/kg. In addition, the entries for the “Ratio EC50” value in data set [4], in [5] and in [6] were 2, 34 and 563, respectively. Moreover, the AUC in [10] was determined as 0.872 µM·h.
In the case of `CC1(C)OCCn2c1nc(-c1ncc(Cc3ccc(F)cc3)s1)c(O)c2=O`, the EC50 in data set [1] was 0.034 µM; in data set [2], 0.003 µM; in data set [3], 0.091 µM; in data set [7], 0.54 µM. Besides, the “Ratio EC50” value in data set [4] is reported as 11; in data set [5], 30; in data set [6], 177.
As for `CC1(C)OCCn2c1nc(-c1nnc(Cc3ccc(F)cc3)[nH]1)c(O)c2=O`, the EC50 in data set [1] was 4 µM; in data set [2], 0.081 µM; in data set [3], 1.5 µM; in data set [7], more than 40 µM. Moreover, the “Ratio EC50” value in data set [4] was 49; in [5], 19; in data set [6], more than 500.
With `CC1(C)OCCn2c1nc(-c1ncc(Cc3ccc(F)cc3)[nH]1)c(O)c2=O`, the EC50 came to 0.002 µM in data set [1], 0.006 µM in [2], 0.033 µM in data set [3] and 0.32 µM in [7]. In data set [8], the clearance amounted to 10 mL/min/kg. In addition, in [9], the Vd stood at 0.3 L/kg. Moreover, the “Ratio EC50” value is recorded as 0.3 in [4], 6 in data set [5] and 54 in data set [6]. The AUC in data set [10] is 4.55 µM·h.
With `Cn1cc(Cc2ccc(F)cc2)nc1-c1nc2n(c(=O)c1O)CCOC2(C)C`, in data set [11], it took 9.3 µM to reach a half-maximal effect (EC50). This lies in the single-digit micromolar range.
With `Cn1c(Cc2ccc(F)cc2)nnc1-c1nc2n(c(=O)c1O)CCOC2(C)C`, the EC50 stood at 0.081 µM in [2], 0.45 µM in data set [3] and 1.1 µM in [7].
Turning to `CC1(C)OCCn2c1nc(-c1ncc(Cc3ccc(F)cc3)o1)c(O)c2=O`, the EC50 in data set [1] was 0.088 µM; in data set [2] it was 0.022 µM; in data set [3], 0.33 µM; in [7], 6.9 µM. Also, the “Ratio EC50” value stood at 4 in [4], 15 in data set [5] and 318 in data set [6].
As for `CC1(C)OCCn2c1nc(-c1nnc(Cc3ccc(F)cc3)o1)c(O)c2=O`, the EC50 in data set [1] was 1.3 µM; in data set [2] it was 0.39 µM; in data set [3] it was 0.19 µM; in data set [7], more than 40 µM. For the same molecule, the “Ratio EC50” value in data set [4] is recorded as 3; in data set [5], 0.5; in data set [6] it was more than 100.
With `CC1(C)OCCn2c1nc(-c1cc(Cc3ccc(F)cc3)[nH]n1)c(O)c2=O`, the EC50 in [1] was determined as 0.26 µM; in data set [2], 0.12 µM; in data set [3], 3 µM; in data set [7], 4.2 µM. In addition, the “Ratio EC50” value in data set [4] is given as 22; in data set [5], 26; in data set [6], 36.
Consider `CC1(C)OCCn2c1nc(-c1cn(Cc3ccc(F)cc3)cn1)c(O)c2=O`, for which the EC50 in data set [1] was determined as 0.009 µM; in data set [2] it was 0.004 µM; in [3] it was 0.026 µM; in [7], 0.32 µM. The molecule further had a clearance in data set [8] of 127 mL/min/kg. Besides, the Vd in data set [9] amounted to 3.5 L/kg. Further, the “Ratio EC50” value is on record as 2 in data set [4], 7 in data set [5] and 80 in [6]. The same molecule came in with an AUC in data set [10] of 0.353 µM·h.
`Cc1nc(-c2nc3n(c(=O)c2O)CCOC3(C)C)nn1Cc1ccc(F)cc1` registered an EC50 in data set [11] of more than 30 µM.

By EC50 is commonly meant the concentration that produces a half-maximal response. The low end stands for a more potent agent, the high end for a less potent agent. For orientation: clearance means a measure of how efficiently the substance is removed, as volume per time. Lower therefore signals a low capacity for elimination. Broadly, the AUC is the area under the concentration-time curve, a measure of exposure. A lower AUC goes with low exposure.
